Test results published in patent US8691186B2, “Imaging infection with compounds that bind to thymidine kinase” (priority 2004, dated 2014).
Converted amounts (≈) assume the structure as drawn.

Assays:
[1] = test system: Escherichia coli; assay: In vitro bacterial susceptibility assay, wild type E. coli; assay type: cell-based; details: for Susceptibility of E. coli to nucleoside analog (growth inhibition): in vitro, Luria broth, 37° C.
Method: (§1) 1-(2′-deoxy-2′-fluoro-β-D-arabinofuranosyl)-5-iodouracil (FIAU) (Moravek catalog no. M251) and penciclovir (Moravek catalog no. M972) were purchased from Moravek Biochemicals (Brea, Calif.). Zidovudine was purchased from Glaxo Wellcome. Bacterial susceptibility tests were performed in 96-well microtiter plates (VWR Scientific), with serial dilutions of drug placed in each well. Each well was inoculated with Escherichia coli (Yale University E. coli Genetic Stock Center, New Haven, Conn.) and grown in Luria broth (Invitrogen) at 37° C. E. coli TK mutants were generated by selecting for spontaneously resistant colonies on plates containing 1 mg/ml Zidovudine. Ten resistant clones were selected and screened for deletions in the TK gene by using the PCR primers SZ46-eTKKO20F and (5′-[…]-3′ (SEQ ID NO: 1)) SZ49-eTK-K0789R (5′-ATCAAGACGCAGCACCATG-3′ (SEQ ID NO: 2)). […] As a control for integrity of the DNA of this clone, its 16S rRNA gene was amplified by using the primers SZ-16S-Ecoli993F (5′-ACATCCACGGAAGTTT-TCAG-3′ (SEQ ID NO: 3)) SZ 16S-Ecoli454R (5′-CCGAAGGTTAAGC-TACCTAC-3′ (SEQ ID NO: 4)).
To determine whether endogenous bacterial TK could provide a reporter enzyme suitable for imaging, the susceptibility of E. coli to a variety of common nucleoside analogs was examined in vitro.
(§2) In vitro susceptibility tests were performed on C. novyi-NT using 96 well plates containing two-fold serial dilutions of FIAU (Moravek Biochemicals) in reinforced clostridial media (Difco). Approximately, 10^5-10^6 bacteria were inoculated into each well and incubated at 37 C. overnight in an anaerobic chamber. C. novyi-NT growth was measured using an OD600. In order to test the mechanism of action of FIAU on bacteria, the thymidine kinase (TK) gene in E. coli was knocked out. An in vitro FIAU susceptibility test comparing wild type E. coli with the mutant TK deficient E. coli was preformed. 96 well plates were used containing two-fold serial dilutions of FIAU in Lauria Broth. Approximately, 10^5-10^6 bacteria were inoculated into each well and incubated at 37 C. overnight. Growth was measured using OD600.

[2] = test system: TK deficient E. coli; assay: In vitro bacterial susceptibility assay, TK-deleted E. coli; assay type: cell-based, Escherichia coli; details: for Susceptibility of TK gene-deleted E. coli derivative: in vitro
Method: as §1
To determine whether the TK gene was responsible for this sensitivity, a derivative of E. coli in which the TK gene was deleted was created. […] Because FIAU can be radiolabeled by using commercially available reagents and has been successfully used to image tumor cells transfected with HSV1-TK, it was elected to test its potential for imaging bacterial infections.
as §2, with “96 well plates were used containing two-fold serial dilutions of FIAU in Lauria Broth. Approximately, 10^5-10^6 bacteria were inoculated into each well and incubated at 37 C. overnight.” left out

[3] = test system: C. novyi-NT; assay: In vitro susceptibility test on C. novyi-NT; assay type: cell-based, Clostridium novyi-NT; details: reinforced clostridial media, overnight, anaerobic, OD600
Method: as §2

[4] = test system: WT E. coli; assay: In vivo imaging of WT E. coli thigh infection in mice; design: species or system Escherichia coli
Method: (§3) E. coli strains or clinical isolates from the Johns Hopkins Hospital Microbiology Laboratory, including Staphylococcus aureus 29213 and 25923, Streptococcus pneumoniae 49619, Enterococcus faecalis 49532, and Staphylococcus epidermidis F362, were used to create experimental infections. Bacteria were grown to log phase in Mueller Hinton Broth with Cations (Remel, Lenexa, Kans.) or BBL Todd Hewitt Broth (Becton Dickinson). Localized infections were generated by injecting 1×10^9 E. coli and ≈1×10^8 of the other bacterial strains into mouse thighs. […] To quantify the minimal number of bacteria required to generate signals upon imaging, mice were injected in the thigh with various amounts of S. aureus 25923. One hour later, the mice were killed, the muscles were harvested and homogenized, and the extracts spread on blood agar plates (Becton Dickinson) for colony counting.
(§4) Mice were injected with 225 μCi of [^125I]FIAU via the tail vein and imaged at various time points thereafter. Before imaging, mice were anesthetized via s.c. administration of acepromazine and ketamine. Each scan took min with a dedicated small-animal single-photon emission computed tomography (SPECT)/computed tomography (CT) camera (Gamma Medica X-SPECT, Northridge, Calif.) in planar acquisition mode using a low-energy high-resolution (LEHR) parallel-hole collimator. For each bacterial strain used, at least two mice were injected and imaged. To obtain SPECT/CT images, animals were first scanned for ≈40 min by using a small-animal SPECT camera in tomographic acquisition mode, using two LEHR parallel-hole collimators. The animals then underwent CT by using appropriate fiducial markers that allowed coregistration.
[^125I]FIAU was synthesized by standard methods and injected i.v. into animals 6 h after intramuscular inoculations of bacteria into the thighs of mice. […] Signals from the infectious lesions could be seen as early as 2 h after injection of [^125I]FIAU and were optimal 16 h after injection.

[5] = test system: TK-deficient (TK−) strain of E. coli; assay: In vivo imaging of TK- E. coli thigh infection in mice; design: species or system Escherichia coli; details: same mice, opposite thighs
Method: as §3
(§5) Mice were injected with 225 μCi of [^125I]FIAU via the tail vein and imaged at various time points thereafter. Before imaging, mice were anesthetized via s.c. administration of acepromazine and ketamine. Each scan took min with a dedicated small-animal single-photon emission computed tomography (SPECT)/computed tomography (CT) camera (Gamma Medica X-SPECT, Northridge, Calif.) in planar acquisition mode using a low-energy high-resolution (LEHR) parallel-hole collimator. […]

[6] = test system: Enterococcus faecalis 49532; assay: In vivo imaging of E. faecalis thigh infection in mice; details: mouse thigh infection
Method: as §3, §5

[7] = test system: Staphylococcus aureus 29213 and 25923; assay: In vivo imaging of S. aureus thigh infection in mice; details: mouse thigh infection
Method: as §3, §5

[8] = test system: Staphylococcus epidermidis F362; assay: In vivo imaging of S. epidermidis thigh infection in mice; details: mouse thigh infection
Method: as §3, §5

[9] = test system: Streptococcus pneumoniae 49619; assay: In vivo imaging of S. pneumoniae thigh infection in mice; details: mouse thigh infection
Method: as §3, §5

[10] = test system: E. faecalis, S. aureus, S. epidermidis, and S. pneumoniae; assay: Time course of imaging of infections caused by pathogenic bacteria in mice; assay type: in vivo
Method: as §3, §4
Accordingly, this time point was chosen for detailed analyses. Biodistribution studies were performed in mice injected with 1×10^8 S. aureus 25923 into one thigh. Six hours later, the mice were injected with 2 μCi of [^125I]FIAU, and, after another 24 h, the mice were killed, their organs were harvested, and radioactivity was determined. […]

[11] = test system: S. aureus 25923; assay: Minimal number of bacteria that could be imaged in mouse thigh; assay type: in vivo, Staphylococcus aureus; details: 1 h after bacterial injection
Method: as §3
To determine the minimal number of bacteria that could be imaged with this approach, various numbers of S. aureus 25923 were injected into mouse thighs. One hour later, the thigh tissue was excised, homogenized, and spread on blood agar plates. The 1-h time point was chosen because this was the earliest time point at which injections of [^125I]FIAU consistently produced discernable scintigraphic images of infectious foci. As few as 2×10^6 colony-forming units per gram of muscle tissue produced discernable signals.

[12] = test system: C. novyi-NT; assay: Imaging of intratumoral C. novyi-NT infection in tumor-bearing mice; assay type: in vivo, Clostridium novyi-NT
Method: All animal experiments were overseen and approved by the Animal Welfare Committee of The John Hopkins University and were in compliance with university standards. Six- to 8-wk-old athymic nu/nu or BALB/c mice, purchased from Harlan Bioproducts for Science (Indianapolis), were used for tumor implantation studies. Five million cells were injected s.c. into the right flank of each mouse. Tumor volume was calculated as length×width^2×0.5, and mice were treated with Clostridium novyi-NT spores when tumors occupied ˜250 mm^3. C. novyi-NT spores were prepared as described (15), and mice were i.v. injected with 300 million spores suspended in 250 μl of PBS.
as §4
BALB/c mice bearing CT-26 mouse colon tumors were treated with a single i.v. injection of C. novyi-NT and [^125I]FIAU was administered 24 h later.
For in vivo studies, FIAU was labeled with 1-125. The optimal time course for imaging mice harboring HCTZ 16 colon cancer xenografts was determined empirically by varying the time of injection of FIAU in relation to C. novyi-NT. Biodistribution studies were performed in 12 athymic nu/nu mice harboring HCTZ 16 xenografts ˜350-400 mm^3, six of which were injected with 300 million C. novyi-NT spores 24 hrs prior to 2 uCi of 1-125 FIAU. Eight hours after I-125 FIAU injection, all twelve mice were euthanized by cervical dislocation and the brain, lungs, heart, blood, small and large intestine, liver, kidneys, muscle and tumor were harvested and weighed. The activity in each tissue was measured using an automated gamma counter (LKB Wallace 1282 Compugamma CS Universal Gamma Counter). The percent-injected dose per gram of tissue (% ID/g) was calculated by comparison with samples of a standard dilution of the initial dose. […]

[13] = BALB/c mice, CT-26 tumors, tracer 24 h after C. novyi-NT i.v.

Question: With O=c1[nH]c(=O)n([C@@H]2O[C@H](CO)[C@@H](O)[C@@H]2F)cc1I [FIAU, 1-(2′-deoxy-2′-fluoro-β-D-arabinofuranosyl)-5-iodouracil] as the molecule, how does the “Susceptibility of E. coli to nucleoside analog (growth inhibition)” value [1] read?
Answer: quite sensitive

Question: What about the log10 IC50 (M) ([1]; wild type E. coli, Lauria Broth, overnight, OD600) of the same molecule?
Answer: -10

Question: What about the “Susceptibility of TK gene-deleted E. coli derivative” value [2] of the same molecule?
Answer: highly resistant

Question: And the “Growth inhibition of TK deficient E. coli” value ([2]; two-fold serial dilutions, overnight, OD600)?
Answer: not inhibited at any concentration

Question: And the “minimum inhibitory concentration 50 (MIC50)” value [3]?
Answer: ~20 µg/mL (≈ 53.8 µM)

Question: For Cc1cn([C@H]2C[C@H](N=[N+]=[N-])[C@@H](CO)O2)c(=O)[nH]c1=O [Zidovudine], which “Susceptibility of E. coli to nucleoside analog (growth inhibition)” value [1] is on record?
Answer: quite sensitive

Question: What about the “Susceptibility of TK gene-deleted E. coli derivative” value [2] of the same molecule?
Answer: moderately resistant

Question: How did the “Susceptibility of E. coli to nucleoside analog (growth inhibition)” value [1] turn out when Nc1nc2c(ncn2COC(CO)CO)c(=O)[nH]1 [genciclovir] was run?
Answer: resistant

Question: For Nc1nc2c(ncn2CCC(CO)CO)c(=O)[nH]1 [penciclovir], which “Susceptibility of E. coli to nucleoside analog (growth inhibition)” value [1] is on record?
Answer: resistant

Question: Which “Earliest time at which signals from infectious lesions could be seen after injection” value ([4]; WT E. coli thigh infection) does the source give for O=c1[nH]c(=O)n([C@@H]2O[C@H](CO)[C@@H](O)[C@@H]2F)cc1[125I] [[^125I]FIAU, 2′-fluoro-2′deoxy-1-beta-D-arabinofuranosyl-5-iodo-uracil] here?
Answer: 2 h

Question: What about the “Time after injection at which signals were optimal” value ([4]; WT E. coli thigh infection) of the same molecule?
Answer: 16 h

Question: What about the “Uptake within infected thighs (whole-body planar scintigram)” value ([4]; tracer i.v. 6 h after i.m. inoculation) of the same molecule?
Answer: demonstrated the uptake

Question: And the “Uptake in thighs inoculated with TK- E. coli” value [5]?
Answer: no discernable uptake

Question: What about the “Imaging of infectious foci due to E. faecalis” value [6] of the same molecule?
Answer: readily imaged

Question: What about the “Imaging of infectious foci due to S. aureus” value [7] of the same molecule?
Answer: readily imaged

Question: What about the “Imaging of infectious foci due to S. epidermidis” value [8] of the same molecule?
Answer: readily imaged

Question: What about the “Imaging of infectious foci due to S. pneumoniae” value [9] of the same molecule?
Answer: readily imaged

Question: And the “Signal-to-noise ratio in infectious foci 24 h after administration” value ([10]; 24 h after administration)?
Answer: high signal-to-noise ratios

Question: And the “Signal-to-noise ratio by 48 h after administration” value ([10]; 48 h after administration of the tracer)?
Answer: very high signal-to-noise ratios

Question: What about the “Earliest time at which robust signals could be observed after administration” value ([10]; mouse thigh infections, patient-derived strains) of the same molecule?
Answer: 4 h

Question: What about the “Minimal number of bacteria producing discernable signals” value [11] of the same molecule?
Answer: 2×10^6 colony-forming units per gram of muscle tissue

Question: And the “Earliest time at which tumors could be visualized after injection of tracer” value [12, 13]?
Answer: 16 h

Question: And the “Time of maximum uptake after injection” value [12, 13]?
Answer: 24 to 48 h

Question: And the “Uptake in tumors not treated with C. novyi-NT” value ([12]; CT-26 tumors, no C. novyi-NT)?
Answer: No uptake

Question: And the “Imaging of tumor types responsive to bacteriolytic therapy” value ([12]; HCT116, HuCCTI or CT26 tumors, after C. novyi-NT spores)?
Answer: able to be imaged
